Results from patent US20200339953A1, “HEMATOPOIETIC STEM AND PROGENITOR CELL THERAPY” (priority 2010, published 2020).

How the values were obtained:
[1] = test system: Whole cord blood cells or CD34^+ cells; test: Cell viability assay (7-AAD staining); assay type: cell-based, human
Method: Whole cord blood cells or CD34^+ cells obtained from Stem Cell Technologies (Vancouver, Canada) were aliquoted equally in Eppendorf tubes and treated ex vivo at a range of 16,16-dimethyl PGE2 concentrations (10 μM to 100 μM) or DMSO control; temperatures (4° C., 22° C., or 37° C.) for 60 or 120 minutes in LMD/5% HSA media. After treatment, an aliquot of the incubated cells were assayed using 7-Amino-Actinomycin D (7-AAD) staining as an indicator of cell death. One million whole cord blood were stained with 5 μL of 7AAD staining solution (BD Bioscience, San Jose, Calif.), or 200,000 CD34^+ cord blood cells were stained with 1 μL 7-AAD solution. Cells were analyzed on a Guava EasyCyte 8HT System (Millipore) and with the FlowJo software package (Tree Star Inc., Ashland, Oreg.). A separate aliquot of the same cells were also taken for assessment of proliferation potential using CFU-C assays (discussed below in Example 4).

[2] = test system: CXCR4 cell-surface protein on CD34^+ cord blood cells; test: CXCR4 surface expression analysis by flow cytometry; assay type: cell-based, human; conditions: 10 μM; for CD34+ cord blood cells with detectable CXCR4 expression: 2 hours at 37° C.
Method: CD34^+ cord blood cells were treated with 10 μM 16,16-dimethyl PGE2 or DMSO in StemSpan media for 2 hours at 37° C. or for 1 hour at 4° C. After treatment, the cells were washed in StemSpan media, centrifuged for 10 minutes at 300× g and resuspended in StemSpan media containing cytokines (e.g., CC100) to promote CD34^+ cell survival and incubated at 37° C. for 1, 6 and 24 hours. After the 1, 6 or 24 hour incubation, cells were centrifuged and resuspended in staining media containing the Lineage cocktail, 1-FITC, […], CXCR4(CD184)-PE, and incubated on ice for 15 minutes. Fresh staining media was then added to the cells, and the cells were centrifuged at 300 g for 10 minutes, twice. The stained cells were acquired on a Guava EasyCyte 8HT and analysis was performed using FloJo Software Package (Treestar).
CXCR4 cell-surface expression is important for stem cell homing to the bone marrow hematopoietic niche. […] Cells were treated for 2 hours at 37 or for 1 hour at 4° C. with either 10 μM 16,16-dimethyl PGE2 or DMSO control in StemSpan media. CXCR4 cell-surface protein expression was assessed 1, 6 and 24 hours after the end of treatment by flow cytometry.

[3] = test system: Human umbilical cord blood cells; Lin(−)CD34^+ cells isolated after treatment; test: Gene expression arrays after treatment of whole cord blood; assay type: cell-based
Method: Further experiments were performed to determine if CD34^+ cells responded to 16,16-dimethyl PGE2 when cells were treated in the context of a whole cord blood clinical treatment protocol. Human umbilical cord blood cells were incubated for 120 minutes at 37° C. with vehicle or 10 μM 16,16-dimethyl PGE2 (See FIGS. 17A-17D). After the incubation, Lin(−) CD34^+ cells were isolated using Miltenyi magnetic sorting. Biotin-labeled aRNA was prepared from the cells, and gene expression profiles were analyzed. […]
These experiments were repeated using human whole cord blood cells to determine if the CD34^+ expression results can be translated to the clinical setting. […] After the incubation, Lin(−)CD34^+ cells were isolated, labeled aRNA was prepared from the cells, and gene expression profiles were analyzed. […]
After treatment, the cells were washed with LMD/5% HSA medium, centrifuged for 10 minutes at 650× g at room temperature and resuspended in a cold selection buffer (phosphate buffered saline (PBS) with no Ca^+ or Mg^+; 2 mM EDTA; and 0.5% HSA). […] Once the Lin-CD34^+ cells were isolated from the treated whole cord blood, an aliquot was analyzed by flow cytometry to assess purity. […]

SMILES: CCCCC(C)(C)[C@H](O)/C=C/[C@H]1[C@H](O)CC(=O)[C@@H]1C/C=C\CCCC(=O)O [16,16-dimethyl PGE2]
- cell viability (FIG. 10) ([1]; CD34+ cells, 10 μM, 120 minutes, 37° C. vs vehicle or 4° C.): does not decrease cell viability
- cell viability (7-AAD) ([1]; whole cord blood cells or CD34+ cells, high temperatures, relatively long incubation periods vs other conditions): did not decrease cell viability
- CXCR4 expression after treatment at 4° C. ([2]; 4° C.): did not result in an increase in CXCR4 expression
- CD34+ cord blood cells with detectable CXCR4 expression ([2]; 1 hour after treatment): 48%
- CD34+ cord blood cells with detectable CXCR4 expression ([2]; 6 hours post-treatment): 34.7%
- level of CXCR4 compared to DMSO treated cells ([2]; 24 hours post-treatment): substantially the same
- response of whole cord blood (more than 99% Lineage+ cells) ([3]; 10 μM, 37° C., 2 hours, FIGS. 17A-17D): did not respond to 16,16-dimethyl PGE2 in a similar manner
- concentration giving the maximal gene expression signature ([3]; whole cord blood treated 120 minutes at 37° C., Lin(−)CD34+ cells isolated): 10 µM
